Tests used:
Assay type in all cases: cell-based, human
FaDu cells [1] = assay: Inhibition test for sphere-forming ability of cancer cells in the presence of BSA (Test Example 2), FaDu; settings: Homo sapiens, 96 h, in the presence of 5% BSA, cultured 4 days
Procedure: (§1) Human colorectal cancer-derived HCT-116 cells, human colon-adenocarcinoma-derived HT-29 cells, and human pharyngeal cancer-derived FaDu cells were available from American Type Culture Collection (ATCC). HCT-116 cells and HT-29 cells were cultured at 37° C. under 5% CO2 using the McCoy's 5a medium containing 10% fetal bovine serum (FBS) and 1% penicillin/streptomycin, and FaDu cells were cultured at 37° C. under 5% CO2 using the MEM medium containing 10% FBS, 1% non-essential amino acid, 1% sodium pyruvate, 5% bovine serum albumin (BSA), and 1% penicillin/streptomycin. HCT-116 cells, HT-29 cells, and FaDu cells were seeded in a 384 Well Black Clear Bottom Ultra-Low Attachment Microplate (Corning Cat. No. 3827) in an amount of 350-800 cells/well using the DMEM/F12 medium containing 2% B27 supplement (GIBCO), 20 ng/mL epidermal growth factor (EGF) (peprotech), 10 ng/mL basic fibroblast growth factor (bFGF) (peprotech), 5 μg/mL insulin (Sigma), 5% bovine serum albumin (BSA), and 1% penicillin/streptomycin. Each test compound was added into each well to adjust the final concentration of DMSO to 0.1%, and the cells were cultured for 4 days. The number of viable cells in each well was then measured with CellTiter-Glo® Luminescent Cell Viability Assay (Promega) to calculate the concentration of each test compound for 50% inhibition of cell proliferation (Sphere IC50 value; μmol/L).
(§2) The experiment of Test Example 2 was performed for each compound of each Example.
(§3) The concentration of each test compound for 50% inhibition of cell proliferation (Sphere IC50 value; μmol/L) is shown in the following Table.

HCT-116 cells [2] = assay: Inhibition test for sphere-forming ability of cancer cells in the presence of BSA (Test Example 2), HCT-116; settings: for IC50: HCT-116 cells, in the presence of 5% BSA, cultured 4 days; for inhibitory effect on the sphere-forming ability of cancer cells: Test Example 2, in the presence of 5% BSA, summary in words, cell line not given (HCT-116, HT-29, FaDu tested)
Procedure: as §1, §2, §3

HCT-116 cells [3] = assay: Inhibition test for sphere-forming ability of cancer cells (Test Example 1), HCT-116; settings: for IC50: HCT-116 cells, concentration for 50% inhibition of cell proliferation, read-out: IC50 (μmol/L) HCT-116 (Sphere IC50 value); for inhibitory effect on the sphere-forming ability of cancer cells: Test Example 1, summary in words, cell line not given (HCT-116, HT-29, FaDu tested)
In short: (§4)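 HCT-116, HT-29 and FaDu cells seeded at 350-800 cells/well on ultra-low attachment plates in serum-free DMEM/F12 with B27, 20 ng/mL EGF, 10 ng/mL bFGF and 5 μg/mL insulin. Compound given at 0.1% DMSO for 4 days; viable cells measured by CellTiter-Glo to give Sphere IC50 (μmol/L).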

HT-29 cells [4] = assay: Inhibition test for sphere-forming ability of cancer cells (Test Example 1), HT-29; settings: concentration for 50% inhibition of cell proliferation, read-out: IC50 (μmol/L) HT-29 (Sphere IC50 value)
In short: as §4

HT-29 cells [5] = assay: Inhibition test for sphere-forming ability of cancer cells in the presence of BSA (Test Example 2), HT-29; settings: in the presence of 5% BSA, cultured 4 days
Procedure: as §1, §2, §3

FaDu cells [6] = assay: Inhibition test for sphere-forming ability of cancer cells (Test Example 1), FaDu; settings: Homo sapiens, concentration for 50% inhibition of cell proliferation, read-out: IC50 (μmol/L) FaDu (Sphere IC50 value)
In short: as §4

Row | IC50 (FaDu cells [1]) [nM] | IC50 (HCT-116 cells [2]; Homo sapiens, HCT-116, 96 h) [nM] | IC50 (HCT-116 cells [3]; Homo sapiens) [µmol/L] | IC50 (HT-29 cells [4]; Homo sapiens) [µmol/L] | IC50 (HT-29 cells [5]; Homo sapiens, 96 h) [nM] | IC50 (FaDu cells [6]) [µmol/L] | IC50 (HCT-116 cells [2]) [nM] | IC50 (HCT-116 cells [3]) [µmol/L] | IC50 (HT-29 cells [4]) [µmol/L] | IC50 (HT-29 cells [5]) [nM] | SMILES | inhibitory effect on the sphere-forming ability of cancer cells (HCT-116 cells [3]) | inhibitory effect on the sphere-forming ability of cancer cells (HCT-116 cells [2])
1 | 600 | 830 | 0.55 | 0.18 | 620 | 0.17 |  |  |  |  | CCCC(=O)Nc1ccc(/C=C/C(=O)Nc2cn(Cc3cccc(Cl)c3)cn2)cc1 [Example 6, (E)-N-(4-(3-((1-(3-Chlorobenzyl)-1H-imidazol-4-yl)amino)-3-oxoprop-1-en-1-yl)phenyl)butylamide] |  | 
2 | 460 | 790 | 0.66 | 0.13 | 550 | 0.35 |  |  |  |  | O=C(/C=C/c1ccc(NC(=O)CO)cc1)Nc1cn(Cc2cccc(Cl)c2)cn1 [Example 7, (E)-N-(1-(3-Chlorobenzyl)-1H-imidazol-4-yl)-3-(4-(2-hydroxyacetylamino)phenyl)acrylamide] |  | 
3 |  | 8380 | 6.63 | 1.96 | 6330 |  |  |  |  |  | C=Cc1ncc(C(=O)Nc2cn(Cc3cccc(C(F)(F)F)c3)cn2)cc1OC [Example 100] |  | 
4 |  | > 10000 | 7.87 | 4.07 | 5960 |  |  |  |  |  | COc1ccc(C(=O)Nc2cn(Cc3cccc(Cl)c3)c(C)n2)cc1OC [Example 102] |  | 
5 |  | 9210 | > 10 | 8.71 | 540 |  |  |  |  |  | COC(=O)c1ccc(/C=C/C(=O)Nc2cn(Cc3cccc(C(F)(F)F)c3)cn2)cn1 [Example 131, Methyl 5-[(1E)-3-oxo-3-({1-[3-(trifluoromethyl)benzyl]-1H-imidazol-4-yl}amino)prop-1-en-1-yl]picolinate] |  | 
6 |  | > 10000 | 8.22 | 6.37 | 6460 |  |  |  |  |  | COC(=O)c1ccc(OCC(=O)Nc2cn(Cc3cc(F)c(F)c(F)c3)cn2)cn1 [Example 132, Methyl 5-(2-oxo-2-{[1-(3,4,5-trifluorobenzyl)-1H-imidazol-4-yl]amino}ethoxy)picolinate] |  | 
7 |  |  |  |  |  |  | > 10000 | 0.81 | 0.57 | 6130 | O=C(Nc1cn(Cc2cccc(Cl)c2)cn1)c1ccc2ncccc2c1 [Example 137] |  | 
8 |  |  |  |  |  |  | > 10000 | 0.1 | 0.2 | 6140 | O=C(Nc1cn(Cc2cccc(Cl)c2)cn1)c1cnc2ccccc2c1 [Example 138] | particularly potent inhibitory effect | 
9 |  |  |  |  |  |  | 5960 | 2.91 | 4.65 | 5760 | O=C(Nc1cn(Cc2cccc(C(F)(F)F)c2)cn1)c1ccncn1 [Example 179] |  | 
10 |  |  |  |  |  |  | > 10000 | 8.73 | 0.76 | 4930 | O=C(Nc1cn(Cc2cccc(C(F)(F)F)c2)cn1)c1cncnc1 [Example 180] |  | 
11 |  |  |  |  |  |  | 8000 | 0.77 | 0.19 | 3310 | O=C(Nc1cn(Cc2cccc(C(F)(F)F)c2)cn1)c1cnc2ccccc2c1 [Example 181] |  | 
12 |  |  |  |  |  |  | > 10000 | 0.94 | 0.29 | 6400 | O=C(Nc1cn(Cc2cccc(C(F)(F)F)c2)cn1)c1ccc2ncccc2c1 [Example 183] |  | 
13 |  |  |  |  |  |  | 560 | 0.08 | 0.05 | 100 | O=C(Nc1cn(Cc2cccc(C(F)(F)F)c2)cn1)c1ccc2cnccc2c1 [Example 186] | particularly potent inhibitory effect | particularly potent inhibitory effect
14 |  |  |  |  |  |  | 5540 | 0.72 | 0.63 | 850 | O=C(Nc1cn(Cc2cccc(C(F)(F)F)c2)cn1)c1cnc2ncccc2c1 [Example 188] |  | 
15 |  |  |  |  |  |  | 270 | 0.06 | 0.06 | 60 | O=C(Nc1cn(Cc2cc(F)c(F)c(F)c2)cn1)c1ccc2cnccc2c1 [Example 190] | particularly potent inhibitory effect | 
16 |  |  |  |  |  |  | 690 | 0.31 | 0.09 | 530 | O=C(Nc1cn(Cc2cccc(Cl)c2)cn1)c1ccc2cnccc2c1 [Example 191] | particularly potent inhibitory effect | 
17 |  |  |  |  |  |  | 70 | 0.05 | < 0.01 | 70 | O=C(Nc1cn(Cc2cccc(C(F)(F)F)c2)cn1)c1cnc2cnccc2c1 [Example 192] | particularly potent inhibitory effect | particularly potent inhibitory effect
18 |  |  |  |  |  |  | 600 | 0.07 | 0.06 | 610 | O=C(Nc1cn(Cc2cccc(C(F)(F)F)c2)cn1)c1ccc2cnccc2n1 [Example 193] | particularly potent inhibitory effect | 
19 |  |  |  |  |  |  | > 10000 | 6.39 | 4.17 | 4880 | COc1cc(C(=O)Nc2cn(Cc3cccc(C(F)(F)F)c3)cn2)cnc1Cl [Example 228] |  | 
20 |  | > 10000 | 6.02 | 0.94 | 5840 |  |  |  |  |  | CC(=O)Nc1ccc(/C=C/C(=O)Nc2cn(Cc3cccc(C(F)(F)F)c3)cn2)nc1 [Example 230] |  | 
21 |  | 700 | 0.56 | 0.07 | 520 |  |  |  |  |  | O=C(/C=C/c1cccnc1)Nc1cn(Cc2cc(F)c(F)c(F)c2)cn1 [Example 231] | particularly potent inhibitory effect | 
22 |  | 6500 | 1 | 0.83 | 5130 |  |  |  |  |  | O=C(Nc1cn(Cc2cccc(C(F)(F)F)c2)cn1)c1ccc(NCCO)nc1 [Example 248, 6-[(2-Hydroxyethyl)amino]-N-{1-[3-(trifluoromethyl)benzyl]-1H-imidazol-4-yl}nicotinamide] |  | 
23 |  | 2420 | 0.49 | 0.29 | 490 |  |  |  |  |  | O=C(Nc1cn(Cc2cccc(C(F)(F)F)c2)cn1)c1ccc(NCC(F)(F)F)nc1 [Example 249] |  | 
24 |  |  |  |  |  |  | 570 | 0.07 | 0.08 | 70 | O=C(Nc1ccc(CO)cc1)c1cn(Cc2cc(F)c(F)c(F)c2)cn1 [Example 253] | particularly potent inhibitory effect | particularly potent inhibitory effect
25 |  |  |  |  |  |  | > 10000 | 8.49 | 6.04 | 6270 | O=C(Nc1cccnc1)c1cn(Cc2cccc(Cl)c2)cn1 [Example 264] |  | 

Row | SMILES | IC50 (FaDu cells [1]) [nM] | IC50 (HCT-116 cells [2]; Homo sapiens, HCT-116, 96 h) [nM] | IC50 (HCT-116 cells [3]; Homo sapiens) [µmol/L] | IC50 (HT-29 cells [4]; Homo sapiens) [µmol/L] | IC50 (HT-29 cells [5]; Homo sapiens, 96 h) [nM] | IC50 (FaDu cells [6]) [µmol/L] | IC50 (HCT-116 cells [2]) [nM] | IC50 (HCT-116 cells [3]) [µmol/L] | IC50 (HT-29 cells [4]) [µmol/L] | IC50 (HT-29 cells [5]) [nM] | inhibitory effect on the sphere-forming ability of cancer cells (HCT-116 cells [3]) | inhibitory effect on the sphere-forming ability of cancer cells (HCT-116 cells [2])
26 | Cc1ccc2cc(NC(=O)c3cn(Cc4cc(F)c(F)c(F)c4)cn3)ccc2n1 [Example 252] |  |  |  |  |  |  | 80 | 0.03 | < 0.01 | 50 | particularly potent inhibitory effect | particularly potent inhibitory effect
27 | Cc1ccc2cc(NC(=O)c3cn(Cc4cccc(Cl)c4)cn3)ccc2n1 [Example 255, 1-(3-Chlorobenzyl)-N-(2-methylquinolin-6-yl)-1H-imidazole-4-carboxamide] |  | 630 | 0.06 | < 0.01 | 390 |  |  |  |  |  | particularly potent inhibitory effect | 
28 | COc1ccc(NC(=O)c2cn(Cc3cccc(Cl)c3)cn2)cc1OC [Example 262] |  |  |  |  |  |  | 6050 | 0.83 | 0.6 | 720 |  | 

— patent publication US10898469B2, “Imidazolylamide derivative” (Sumitomo Dainippon Pharma Co., Ltd., priority 2016, dated 2021)
